Test results reported in US20230049952A1, “METHODS AND COMPOUNDS FOR RESTORING MUTANT P53 FUNCTION” (PMV Pharmaceuticals, Inc., priority 2020, published 2023).
“And” between values parts separate entries of the source, which are not always exact repeats. Equal entries are not always repeated.

Assay: Compound 2 and metabolites in rat plasma, 50 mg/kg PO QD×10
Type: in vivo
Details: for Average Concentration: rat plasma
Method: The proposed metabolite pathway was determined in vitro, and levels of potential metabolites were measured by LC/MS-MS in rat plasma remaining from the dose rising 10-day repeat dose study in rats. Six potential metabolites were quantified in the low (50 mg/kg) single dose rats. […] Rats were rotated between timepoints to form a composite PK curve. […] A 100 μL aliquot of the supernatant was transferred to the sample plate and mixed with 100 μL of water, then the plate was shaken at 800 rpm for 10 min. 0.5-2 μL supernatant was then injected into a Triple Quad 6500+ for LC-MS/MS analysis. The standard curve was generated at 1-3000 ng/mL for the compounds in rat plasma (EDTA-K2).
The male and female PK parameters were averaged together since there was <2-fold variation between the genders. All values deemed below the level of quantification (BLQ) were excluded from the PK parameters calculations.

[1] = Compound 2 50 mg/kg PO QD×1, 1 h, 50 mg/kg
[2] = Compound 2 50 mg/kg PO QD×1, 2 h, 50 mg/kg
[3] = Compound 2 50 mg/kg PO QD×1, 4 h, 50 mg/kg
[4] = Compound 2 50 mg/kg PO QD×1, 8 h, 50 mg/kg
[5] = Compound 2 50 mg/kg PO QD×1, 24 h, 50 mg/kg
[6] = Compound 2 50 mg/kg PO QD×10, 1 h post tenth dose, 50 mg/kg
[7] = Compound 2 50 mg/kg PO QD×10, 2 h post tenth dose, 50 mg/kg
[8] = Compound 2 50 mg/kg PO QD×10, 4 h post tenth dose, 50 mg/kg
[9] = Compound 2 50 mg/kg PO QD×10, 8 h post tenth dose, 50 mg/kg
[10] = Compound 2 50 mg/kg PO QD×10, 24 h post tenth dose, 50 mg/kg
[11] = Compound 2 50 mg/kg PO QD×10, 48 h post tenth dose, 50 mg/kg
[12] = Day 1, of Compound 2 AUC0-24, rat, 50 mg/kg PO
[13] = Day 1, rat, Compound 2 50 mg/kg PO
[14] = Day 10, of Compound 2 AUC0-last, rat, 50 mg/kg PO QD×10
[15] = Day 10, rat, Compound 2 50 mg/kg PO QD×10
[16] = after single (first) 50 mg/kg PO dose of Compound 2
[17] = Compound 2 50 mg/kg PO QD×1, 1 h
[18] = Compound 2 50 mg/kg PO QD×1, 2 h
[19] = Compound 2 50 mg/kg PO QD×1, 4 h
[20] = Compound 2 50 mg/kg PO QD×1, 8 h
[21] = Compound 2 50 mg/kg PO QD×1, 24 h
[22] = Compound 2 50 mg/kg PO QD×10, 1 h post tenth dose
[23] = Compound 2 50 mg/kg PO QD×10, 2 h post tenth dose
[24] = Compound 2 50 mg/kg PO QD×10, 4 h post tenth dose
[25] = Compound 2 50 mg/kg PO QD×10, 8 h post tenth dose
[26] = Compound 2 50 mg/kg PO QD×10, 24 h post tenth dose
[27] = Compound 2 50 mg/kg PO QD×10, 48 h post tenth dose
[28] = Compound 2 50 mg/kg PO QD×10, 72 h post tenth dose
[29] = Compound 2 50 mg/kg PO QD×10, 96 h post tenth dose
[30] = repeat 10 day administration of Compound 2, 50 mg/kg PO

Row | % of Parent [12] | AUC0-24 [13] | % of Parent [14] | AUC0-last [15] | Average Concentration [17] | Average Concentration [18] | Average Concentration [19] | Average Concentration [20] | Average Concentration [21] | SMILES | calculated concentration in rat plasma (individual rats) [1] | calculated concentration in rat plasma (individual rats) [2] | calculated concentration in rat plasma (individual rats) [3] | calculated concentration in rat plasma (individual rats) [4] | calculated concentration in rat plasma (individual rats) [5] | calculated concentration in rat plasma (individual rats) [6] | calculated concentration in rat plasma (individual rats) [7] | calculated concentration in rat plasma (individual rats) [8] | calculated concentration in rat plasma (individual rats) [9] | calculated concentration in rat plasma (individual rats) [10] | calculated concentration in rat plasma (individual rats) [11] | also measured
1 | 17.6% | 13840 ng·h/mL | 18.1% | 19943 ng·h/mL | 461.83 ng/mL | 682.50 ng/mL | 845.83 ng/mL | 817.33 ng/mL | 205.50 ng/mL | CCn1c(C#CCNc2ccc(F)cc2)cc2cc(CNC)ccc21 [Compound 5, 3-{1-Ethyl-5-[(methylamino)methyl]-1H-indol-2-yl}-1-(p-fluorophenylamino)-2-propyne] | 576 ng/mL and 407 ng/mL and 342 ng/mL and 649 ng/mL and 486 ng/mL and 311 ng/mL | 1050 ng/mL and 561 ng/mL and 617 ng/mL and 665 ng/mL and 630 ng/mL and 572 ng/mL | 732 ng/mL and 850 ng/mL and 1120 ng/mL and 738 ng/mL and 774 ng/mL and 861 ng/mL | 941 ng/mL and 742 ng/mL and 901 ng/mL and 752 ng/mL and 872 ng/mL and 696 ng/mL | 218 ng/mL and 144 ng/mL and 208 ng/mL and 266 ng/mL and 246 ng/mL and 151 ng/mL | 532 ng/mL and 434 ng/mL and 580 ng/mL and 539 ng/mL and 753 ng/mL and 738 ng/mL | 513 ng/mL and 639 ng/mL and 761 ng/mL and 625 ng/mL and 671 ng/mL and 616 ng/mL | 789 ng/mL and 675 ng/mL and 859 ng/mL and 1010 ng/mL and 887 ng/mL and 701 ng/mL | 619 ng/mL and 737 ng/mL and 807 ng/mL and 812 ng/mL and 881 ng/mL and 772 ng/mL | 216 ng/mL and 376 ng/mL and 234 ng/mL and 486 ng/mL and 477 ng/mL and 484 ng/mL | 6.57 ng/mL and 22.4 ng/mL and 13.6 ng/mL and 55.0 ng/mL and 27.3 ng/mL and 31.2 ng/mL | calculated concentration in rat plasma (individual rats) (Compound 2 50 mg/kg PO QD×10, 72 h post tenth dose, 50 mg/kg): 3.25 ng/mL and 2.30 ng/mL and BLQ (3×) and 17.3 ng/mL; calculated concentration in rat plasma (individual rats) (Compound 2 50 mg/kg PO QD×10, 96 h post tenth dose, 50 mg/kg): BLQ (5×) and 1.27 ng/mL; AUC0-24 [16]: 13,840 ng·h/mL; percent of the parent Compound 2 AUC0-24 [16]: 17.6%; Average Concentration [22]: 596.00 ng/mL; Average Concentration [23]: 637.50 ng/mL; Average Concentration [24]: 820.17 ng/mL; Average Concentration [25]: 771.33 ng/mL; Average Concentration [26]: 378.83 ng/mL; Average Concentration [27]: 26.01 ng/mL; Average Concentration [28]: 7.62 ng/mL; Average Concentration [29]: 1.27 ng/mL; AUC0-last [30]: 19,943 ng·h/mL; percent of parent AUC0-last [30]: 18.1%
2 | 1.6% | 1254 ng·h/mL | 0.9% | 1021 ng·h/mL | 18.64 ng/mL | 58.20 ng/mL | 58.42 ng/mL | 95.78 ng/mL | 1.88 ng/mL | CCn1c(C#CCNc2ccc(C)nc2)cc2cc(CNC3CCOCC3)ccc21 [Compound 8, 3-{1-Ethyl-5-[(tetrahydro-2H-pyran-4-ylamino)methyl]-1H-indol-2-yl}-1-(6-methyl-3-pyridylamino)-2-propyne] | 28.5 ng/mL and 16.5 ng/mL and 13.4 ng/mL and 8.05 ng/mL and 22.8 ng/mL and 22.6 ng/mL | 88.9 ng/mL and 36.3 ng/mL and 32.5 ng/mL and 78.0 ng/mL and 62.0 ng/mL and 51.5 ng/mL | 84.8 ng/mL and 81.1 ng/mL and 34.9 ng/mL and 38.5 ng/mL and 52.9 ng/mL and 58.3 ng/mL | 77.5 ng/mL and 46.5 ng/mL and 86.3 ng/mL and 203 ng/mL and 87.6 ng/mL and 73.8 ng/mL | 2.71 ng/mL and 1.20 ng/mL and 1.36 ng/mL and 2.31 ng/mL and 2.43 ng/mL and 1.25 ng/mL | 16.5 ng/mL and 6.52 ng/mL and 10.4 ng/mL and 6.59 ng/mL and 46.7 ng/mL and 24.4 ng/mL | 14.6 ng/mL and 17.1 ng/mL and 27.6 ng/mL and 38.9 ng/mL and 57.5 ng/mL and 24.2 ng/mL | 39.0 ng/mL and 39.4 ng/mL and 22.5 ng/mL and 92.1 ng/mL and 65.1 ng/mL and 19.9 ng/mL | 29.5 ng/mL and 35.5 ng/mL and 57.2 ng/mL and 121 ng/mL and 135 ng/mL and 67.6 ng/mL | 1.63 ng/mL and 2.61 ng/mL and 2.12 ng/mL and 10.6 ng/mL and 7.70 ng/mL and 8.00 ng/mL | BLQ (4×) and 1.01 ng/mL and 1.21 ng/mL | calculated concentration in rat plasma (individual rats) [28]: BLQ; calculated concentration in rat plasma (individual rats) [29]: BLQ; Average Concentration [22]: 18.52 ng/mL; Average Concentration [23]: 29.98 ng/mL; Average Concentration [24]: 46.33 ng/mL; Average Concentration [25]: 74.30 ng/mL; Average Concentration [26]: 5.44 ng/mL; Average Concentration [27]: 1.11 ng/mL; Average Concentration [28]: BLQ; Average Concentration [29]: BLQ
3 |  |  |  |  |  |  |  |  |  | CCn1c(C#CCNc2ccc(F)cc2)cc2cc(CNC3CCOCC3)ccc21 [Compound 6, 3-{1-Ethyl-5-[(tetrahydro-2H-pyran-4-ylmino)methyl]-1H-indol-2-yl}-1-(p-fluorophenylamino)-2-propyne] |  |  |  |  |  |  |  |  |  |  |  | AUC0-24 (rat, in vivo, po, 50 mg/kg): 377 ng·h/mL; AUC0-last (rat, in vivo, po, 50 mg/kg): 389 ng·h/mL
4 | 1.6% | 1241 ng·h/mL | 1.5% | 1620 ng·h/mL | 41.55 ng/mL | 64.98 ng/mL | 74.85 ng/mL | 73.43 ng/mL | 17.88 ng/mL | CCn1c(C#CCNc2ccccc2)cc2cc(CNCc3ccccc3)ccc21 [Compound 4, 1-Anilino-3-[5-(benzylaminomethyl)-1-ethyl-1H-indol-2-yl]-2-propyne] | 52.4 ng/mL and 34.7 ng/mL and 28.5 ng/mL and 58.3 ng/mL and 44.0 ng/mL and 31.4 ng/mL | 98.8 ng/mL and 56.5 ng/mL and 57.4 ng/mL and 65.7 ng/mL and 58.2 ng/mL and 53.3 ng/mL | 72.2 ng/mL and 73.2 ng/mL and 96.5 ng/mL and 63.9 ng/mL and 69.0 ng/mL and 74.3 ng/mL | 86.8 ng/mL and 66.7 ng/mL and 79.4 ng/mL and 71.8 ng/mL and 72.4 ng/mL and 63.5 ng/mL | 17.9 ng/mL and 11.4 ng/mL and 18.4 ng/mL and 24.0 ng/mL and 22.5 ng/mL and 13.1 ng/mL | 48.8 ng/mL and 34.5 ng/mL and 45.1 ng/mL and 46.0 ng/mL and 64.9 ng/mL and 67.1 ng/mL | 42.8 ng/mL and 51.0 ng/mL and 62.7 ng/mL and 54.2 ng/mL and 59.7 ng/mL and 52.9 ng/mL | 66.1 ng/mL and 54.7 ng/mL and 73.4 ng/mL and 93.1 ng/mL and 83.9 ng/mL and 58.7 ng/mL | 53.2 ng/mL and 61.4 ng/mL and 69.2 ng/mL and 67.5 ng/mL and 73.1 ng/mL and 65.4 ng/mL | 17.1 ng/mL and 29.4 ng/mL and 19.7 ng/mL and 38.9 ng/mL and 40.7 ng/mL and 40.1 ng/mL | BLQ and 1.97 ng/mL and 1.33 ng/mL and 4.63 ng/mL and 2.28 ng/mL and 2.67 ng/mL | calculated concentration in rat plasma (individual rats) [28]: BLQ; calculated concentration in rat plasma (individual rats) [29]: BLQ; Average Concentration [22]: 51.07 ng/mL; Average Concentration [23]: 53.88 ng/mL; Average Concentration [24]: 71.65 ng/mL; Average Concentration [25]: 64.97 ng/mL; Average Concentration [26]: 30.98 ng/mL; Average Concentration [27]: 2.58 ng/mL; Average Concentration [28]: BLQ; Average Concentration [29]: BLQ
